# Measured values: patent US6737085B2, “Apocynum venetum extract for use as antidepressant” (Tokiwa Phytochemical Co., Ltd., priority 2000, dated 2004)
# Structures can show the parent of a compound that is named as a salt.
# How the values were obtained:
# [1] = tested on: Male CD rats; assay: forced swimming test, acute administration; type: in vivo
# Method: A common method for evaluating antidepressant effect called as the forced swimming test (Porsolt et al., Nature. 266, 730-732, (1977)) was used as follows. Male CD rats (230-250 g) were used in the tests. Forty animals were divided into groups of 8 animals treated with 30 mg/kg imipramine, 125 mg/kg, 250 mg/kg and 500 mg/kg Apocynum extract and purified water. Test solutions were orally administered 24 h, 5 h and 1 h before testing. Rats were forced to swim for 15 min in a Plexiglas cylinder (40×18 cm i.d.) containing water at 25° C. at a level of 17 cm so that they preliminarily learned that they could not escape from the cylinder. […] All the tests were performed between 1-3 p.m. The images in the tapes were evaluated by a person who was not aware of the treatment of each group.
# Test solutions were prepared by dissolving or suspending Apocynum extract prepared in Example 2 in purified water or dissolving imipramine-HCl (imipramine is a known tricyclic antidepressant) in purified water, and administered at a dose of 10 ml/kg body weight. The results from 8 experimental animals in each group were expressed in mean ”SEM. Statistic significance as compared with control group was determined by ANOVA and multiple comparison tests were made by Fisher-PLSD (p<0.05:*).
# [2] = tested on: Male CD rats; assay: forced swimming test, repeated administration; type: in vivo
# Method: A common method for evaluating antidepressant effect called as the forced swimming test (Porsolt et al., Nature. 266, 730-732, (1977)) was used in the same manner as in Example 3. Male CD rats (230-250 g) were used in the tests. Forty animals were divided into groups of 8 animals treated with 20 mg/kg imipramine, 30 mg/kg, 60 mg/kg and 125 mg/kg Apocynum extract and purified water. Test solutions were orally administered between 3-4 p.m. daily. Rats were forced to swim for 15 min in a Plexiglas cylinder (40×18 cm i.d.) containing water at 25° C. at a level of 17 cm so that they preliminarily learned that they could not escape from the cylinder. […] All the tests were performed between 1-3 p.m. The images in the tapes were evaluated by a person who was not aware of the treatment of each group.
# Test solutions were prepared by dissolving or suspending Apocynum extract prepared in Example 2 in purified water or dissolving imipramine-HCl (imipramine is a known tricyclic antidepressant) in purified water, and administered at a dose of 10 ml/kg body weight. The results from 8 experimental animals in each group were expressed in mean±SEM. Statistic significance as compared with control group was determined by ANOVA and multiple comparison tests were made by Fisher-PLSD (p<0.05:*).
compound,measurement,setting,value
"CN(C)CCCN1c2ccccc2CCc2ccccc21 [Imipramine, imipramine-HCl]",Inactive period (seconds),"[1]; 30 mg/kg orally 24 h, 5 h and 1 h before testing, 5 min swim, mean±SEM, n=8, control 209 ± 20, * p<0.05",137 ± 18* seconds
same,inactive period as compared with control group,"[1]; 30 mg/kg, acute oral administration, ANOVA, Fisher-PLSD p<0.05",significantly shortened
same,Inactive period (seconds),"[2]; 20 mg/kg orally daily, repeated, 5 min swim 1 h after final administration, mean±SEM, n=8, control 161.54 ± 16.5, * p<0.05",97.91 ± 9.6* seconds
same,inactive period as compared with control group,"[2]; 20 mg/kg, repeated oral administration, ANOVA, Fisher-PLSD p<0.05",significantly shortened
